The text below walks through data of patent US11230535B2, “CFTR regulators and methods of use thereof” (THE REGENTS OF THE UNIVERSITY OF CALIFORNIA, priority 2015, dated 2022).

For one series, the system named is FRT cells. Description: Cytotoxicity by Alamar Blue assay in FRT cells. To be noted: for cytotoxicity of 6k / 12: 10 μM, 8 h; for cytotoxicity at up to 100 μM: 1 or 24 h. The class given is cell-based, rat.
For the next series, the system named is rat liver microsomes. The experiment in a line: In vitro metabolic stability in rat liver microsomes. To be noted: NADPH. The class given is in vitro ADME. As to the method: In vitro metabolic stability. Compounds (each 5 μM) were incubated for specified times at 37° C. with rat liver microsomes (1 mg/ml; Sigma-Aldrich) in potassium phosphate buffer containing 1 mM NADPH, as described^14.

The next series has as its target human wild-type CFTR (Homo sapiens, UniProt P13569). The experiment in a line: Cell-based plate reader (YFP iodide influx) assay of CFTR function. Set-up: expressed in transfected cells; host or cells: Fischer rat thyroid (FRT) cells stably co-expressing YFP-H148Q. The method, boiled down:
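YFP-quenching assay: I⁻ influx is read for 2 s baseline and 12 s after rapid I⁻ addition. The initial influx rate, from exponential regression, is a linear measure of channel function. Plates carry DMSO vehicle and 20 μM forskolin controls.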

The next series deals with mice. The experiment in a line: Tear secretion / tear volume in mice (phenol red thread). The class given is in vivo, mouse. To be noted: for duration of increased tear secretion / increase in tear fluid secretion / tear secretion, in words: single topical dose, wild-type mice; for tear secretion / tear volume in CF mice: CF mice lacking functional CFTR. As to the method:
To measure unstimulated tear production, phenol red threads (Zone-Quick, Oasis Medical, Glendora, Calif., USA) were placed for 10 s in the lateral canthi of isofluorane-anesthetized mice using jewelers' forceps. Tear volume was measured as the length of thread wetting, as visualized under a dissecting microscope. Serial measurements were used to evaluate compound pharmacodynamics after application of 2-μL drops of compound formulations (50-100 μM compound in PBS containing 0.5% polysorbate and 0.5% DMSO) comparing to vehicle.
Tear secretion. To measure unstimulated tear production, phenol red threads (Zone-Quick, Oasis Medical, Glendora, Calif., USA) were placed for 10 s in the lateral canthi of isofluorane-anesthetized mice using jewelers' forceps. Tear volume was measured as the length of thread wetting, as visualized under a dissecting microscope. Serial measurements were used to evaluate compound pharmacodynamics after application of 2-[…]L drops of compound formulations (50-100 μM compound in PBS containing 0.5% polysorbate and 0.5% DMSO) comparing to vehicle.
Tear volume. Tear volume was measured using phenol red threads (Zone-Quick, Oasis Medical, Glendora, Calif.) as described. Threads were placed for 10 s in the lateral canthi of isofluorane-anesthetized mice using jewelers' forceps. Tear volume was determined from the length of thread wetting as visualized under a dissecting microscope. Serial measurements were done to evaluate compound pharmacodynamics after topical application of a single, 2.5-μL drop of ophthalmic formulation containing 0-100 μM of 1 or 12 in Ringer's solution with 0.3% carboxymethylcellulose (high viscosity, VWR, Radnor, Pa.), 0.015% benzalkonium chloride preservative, and 1% DMSO. Both eyes in each mouse received the same treatment to control for potential contralateral effects of a given treatment.

SMILES strings stand for the structures. pEC50: −log10 of the molar value. Entries after “also recorded” stand apart in the source; their conditions may differ. Read-outs that look alike come from different tables or passages of the source.

Sequence of human wild-type CFTR (P13569 whole entry): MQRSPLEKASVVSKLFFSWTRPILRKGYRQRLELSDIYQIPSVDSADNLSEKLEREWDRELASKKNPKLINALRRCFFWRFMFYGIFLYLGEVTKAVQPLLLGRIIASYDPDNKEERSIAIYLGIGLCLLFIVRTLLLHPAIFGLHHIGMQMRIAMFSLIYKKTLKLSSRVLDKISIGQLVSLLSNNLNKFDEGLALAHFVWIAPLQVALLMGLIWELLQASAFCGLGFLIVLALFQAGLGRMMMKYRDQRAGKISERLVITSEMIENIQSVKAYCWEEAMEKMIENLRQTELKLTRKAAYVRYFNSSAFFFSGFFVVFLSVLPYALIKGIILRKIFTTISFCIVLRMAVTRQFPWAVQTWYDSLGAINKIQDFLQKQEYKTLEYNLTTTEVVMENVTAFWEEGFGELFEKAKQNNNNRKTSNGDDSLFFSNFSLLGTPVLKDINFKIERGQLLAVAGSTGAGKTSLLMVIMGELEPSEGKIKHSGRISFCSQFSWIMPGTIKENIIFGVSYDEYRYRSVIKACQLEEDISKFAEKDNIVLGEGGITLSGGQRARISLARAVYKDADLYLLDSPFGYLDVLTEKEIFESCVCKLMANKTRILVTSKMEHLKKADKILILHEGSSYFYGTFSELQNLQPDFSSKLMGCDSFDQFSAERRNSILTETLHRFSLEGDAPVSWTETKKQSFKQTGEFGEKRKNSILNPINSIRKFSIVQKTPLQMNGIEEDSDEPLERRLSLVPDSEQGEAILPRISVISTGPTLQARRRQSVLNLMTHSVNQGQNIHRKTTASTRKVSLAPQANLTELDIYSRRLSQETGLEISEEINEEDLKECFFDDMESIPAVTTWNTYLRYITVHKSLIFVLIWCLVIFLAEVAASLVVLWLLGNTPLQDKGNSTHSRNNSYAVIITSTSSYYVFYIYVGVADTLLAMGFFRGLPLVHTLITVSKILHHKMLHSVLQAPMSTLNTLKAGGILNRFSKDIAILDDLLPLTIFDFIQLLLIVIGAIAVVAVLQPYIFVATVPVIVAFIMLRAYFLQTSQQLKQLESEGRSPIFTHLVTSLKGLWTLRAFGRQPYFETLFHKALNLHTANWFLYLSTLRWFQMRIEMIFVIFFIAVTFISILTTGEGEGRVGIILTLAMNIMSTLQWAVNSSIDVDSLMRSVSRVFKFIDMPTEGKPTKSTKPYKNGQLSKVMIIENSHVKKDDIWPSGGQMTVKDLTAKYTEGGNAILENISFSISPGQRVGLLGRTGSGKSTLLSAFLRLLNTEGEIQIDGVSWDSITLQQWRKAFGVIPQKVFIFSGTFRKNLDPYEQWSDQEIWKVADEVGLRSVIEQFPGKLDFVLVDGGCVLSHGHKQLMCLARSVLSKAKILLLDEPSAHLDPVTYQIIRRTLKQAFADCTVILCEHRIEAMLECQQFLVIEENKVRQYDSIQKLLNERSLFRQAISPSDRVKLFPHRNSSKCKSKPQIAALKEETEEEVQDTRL

Take `CCN(CC)c1nc(Nc2ccc3ncsc3c2)nc(OC(C(F)(F)F)C(F)(F)F)n1` [6k, N′-(1,3-Benzothiazol-6-yl)-N,N-diethyl-6-[(1,1,1,3,3,3-hexafluoropropan-2-yl)oxy]-1,3,5-triazine-2,4-diamine]: the “cytotoxicity of 6k / 12” value with FRT cells is given as “did not produce significant toxicity”. Besides, the “original compound remaining at 60 min” value with rat liver microsomes (5 μM, rat hepatic microsomes) is on record as approximately 60%. For the same compound, in the series with rat liver microsomes, the “metabolic stability in hepatic microsomes, in words” value (“metabolic stability” for short) was “metabolized slowly; also recorded: substantially greater in vitro metabolic stability than 1 or 12”. For the same compound, on human wild-type CFTR, the pEC50 is approximately 7.30 and the “fold increase in potency over benzoxazole 6j” value was approximately 3 fold. In addition, at human wild-type CFTR (bicyclic aniline analogs, read-out: EC50), the pEC50 is 7.30.

For the compound `Nc1ccc([N+](=O)[O-])cc1-c1nc2ccccc2n(Cc2ccccc2)c1=O` [CFTRact-J027, 3-(2-amino-5-nitrophenyl)-1-benzylquinoxalin-2(1H)-one], the “cytotoxicity at 20 μM” value with FRT cells (20 μM) was “did not show cytotoxicity”. In the series with FRT cells (25 μM), the “cytotoxicity at 25 μM” value is on record as “did not show significant in vitro cytotoxicity” and the “non-cytotoxic concentration relative to EC50 for CFTR activation” value was more than 100 fold. Further, the “cytotoxicity at up to 100 μM” value in the series with FRT cells is given as “no appreciable in vitro cytotoxicity”. Also, in the series with mice, the “duration of increased tear secretion” value is on record as “at least four” and the “increase in tear fluid secretion” value is “approximately two-fold”.

For the compound `CCN(CC)c1nc(Nc2ccccc2)nc(OC(C(F)(F)F)C(F)(F)F)n1` [CFTRact-K089, N,N-Diethyl-6-[(1,1,1,3,3,3-hexafluoropropan-2-yl)oxy]-N′-phenyl-1,3,5-triazine-2,4-diamine], the “cytotoxicity at up to 100 μM” value with FRT cells is given as “no appreciable in vitro cytotoxicity”. In addition, in the series with mice, the “tear secretion / tear volume in CF mice” value is reported as “no effect”; the “duration of increased tear secretion” value was “four and at least four”; the “increase in tear fluid secretion” value is reported as “approximately two-fold”; the “tear secretion, in words” value was “doubled basal tear secretion”. Further, the “metabolic stability” value in the series on rat liver microsomes is listed as “metabolized rapidly”. The negative-log EC50 (pEC50) at human wild-type CFTR (N,N-diethyl-N′-aryl-1,3,5-triazine diamine analogs, read-out: EC50 for CFTR activation) was 6.62. In addition, the “% Activation” value at human wild-type CFTR (commercial analogs, FRT cells with YFP and wildtype CFTR, 125 nM forskolin) is 111%. Moreover, on human wild-type CFTR (commercial analogs, read-out: EC50 (full-dose response assay, compounds >80% activation)), the negative logarithm of the EC50 (pEC50) was 6.60.

`CC(C)(C)c1cc(C(C)(C)C)c(NC(=O)c2c[nH]c3ccccc3c2=O)cc1O` [VX-770, reference compound]: in the series on mice, the “tear secretion, in words” value is reported as “little tear secretion”.

For `CNc1nc(Nc2ccccc2)nc(OCC(F)(F)C(F)F)n1` [compound 12, N-methyl-N′-phenyl-6-(2,2,3,3-tetrafluoropropoxy)-1,3,5-triazine-2,4-diamine], the “cytotoxicity of 6k / 12” value with FRT cells was “non-toxic; also recorded: did not produce significant toxicity”. For the same compound, in the series on mice (25 pmol, single dose), the “duration of sustained effect on tear volume” value was found to be 8 h. Further, in the series with mice (100 μM (250 pmol), single dose), the “duration of sustained increase in tear volume” value was 8 h and the “time of return of tear volume to baseline” value fell in the range of 12 to 24 h. In addition, the “tear secretion / tear volume in CF mice” value in the series with mice is on record as “without effect; also recorded: did not increase tear volume”. The “time of maximal tear volume” value with mice (doses down to 25 pmol) was in the range of 1 to 3 h. Also, the “duration of sustained in vivo efficacy” value in the series with mice (mice) is recorded as “at least 8 hours”. The “lowest dose with similar activity on tear volume” value in the series on mice (single-dose dose-response) stood at 25 pmol. The “metabolic stability” value with rat liver microsomes is recorded as “rapidly metabolized by hepatic microsomes”. Besides, on human wild-type CFTR, the “fold better EC50 than diethylamine analog 6a” value is listed as approximately 50 fold and the “fold more potent than hexafluoropropanol analog 11” value is approximately 3 fold. In addition, the negative-log EC50 (pEC50) on human wild-type CFTR (N-methyl-N′-phenyl-1,3,5-triazine diamine analogs, read-out: EC50) is 7.40.
